In PubChem BioAssay AID212 (DTP/NCI, 2004):
Where “and” joins values, the source holds several entries; their conditions need not be identical. Identical values can stand only once. Records with an inconclusive call do not appear.

System: BDF1 mice, colon carcinoma 38 sc, T/C %
Assay: NCI In Vivo Anticancer Drug Screen. Data for tumor model Colon Carcinoma 38 (subcutaneous) in B6D2F1 (BDF1) mice
Details: endpoint: median tumor weight (est.), higher = larger tumour
Protocol: The antitumor activity of compounds was measured in mice bearing transplantable tumors. Survival or tumor size were measured and the results are expressed as the measurement made in the treated group (T) divided by the measurement made in the vehicle treated control group (C). The tumor model used in this assay is Colon Carcinoma 38 (subcutaneous) in B6D2F1 (BDF1) mice

[1] = dose: 50.0 mg/kg/injection, schedule: Q07DX002 (ip), vehicle: suspension in saline
[2] = dose: 200.0 mg/kg/injection, schedule: Q07DX002 (ip), vehicle: suspension in saline
[3] = dose: 25.0 mg/kg/injection, schedule: Q07DX002 (ip), vehicle: suspension in saline
[4] = dose: 12.5 mg/kg/injection, schedule: Q07DX002 (ip), vehicle: saline with Tween-80
[5] = dose: 50.0 mg/kg/injection, schedule: Q07DX002 (ip), vehicle: saline with Tween-80
[6] = dose: 200.0 mg/kg/injection, schedule: Q07DX002 (ip), vehicle: saline with Tween-80
[7] = dose: 3.0 mg/kg/injection, schedule: Q07DX002 (ip), vehicle: saline
[8] = dose: 6.0 mg/kg/injection, schedule: Q07DX002 (ip), vehicle: saline
[9] = dose: 12.0 mg/kg/injection, schedule: Q07DX002 (ip), vehicle: saline
[10] = dose: 25.0 mg/kg/injection, schedule: Q07DX002 (ip), vehicle: saline with Tween-80
[11] = dose: 2.0 mg/kg/injection, schedule: Q07DX002 (ip), vehicle: saline
[12] = dose: 4.0 mg/kg/injection, schedule: Q07DX002 (ip), vehicle: saline
[13] = dose: 8.0 mg/kg/injection, schedule: Q07DX002 (ip), vehicle: saline
[14] = dose: 16.0 mg/kg/injection, schedule: Q07DX002 (ip), vehicle: saline
[15] = dose: 32.0 mg/kg/injection, schedule: Q07DX002 (ip), vehicle: saline

CC(=O)OCC1OC(n2ncc(=O)[nH]c2=O)C(OC(C)=O)C1OC(C)=O (configuration not stated)
T/C [1]: 100 % of control | T/C (dose: 100.0 mg/kg/injection, schedule: Q07DX002 (ip), vehicle: suspension in saline): 95 % of control | T/C [2]: 52 % of control | T/C (dose: 400.0 mg/kg/injection, schedule: Q07DX002 (ip), vehicle: suspension in saline): 66 % of control | T/C (dose: 800.0 mg/kg/injection, schedule: Q07DX002 (ip), vehicle: suspension in saline): 64 % of control

O=C1C=CN(C2OC(CO)C(O)C2O)C(=O)C1 (configuration not stated)
T/C (dose: 25.0 mg/kg/injection, schedule: Q07DX003 (ip), vehicle: saline): 121 % of control | T/C (dose: 100.0 mg/kg/injection, schedule: Q07DX003 (ip), vehicle: saline): 73 % of control | T/C (dose: 200.0 mg/kg/injection, schedule: Q07DX003 (ip), vehicle: saline): 163 % of control

ClC1=C(Cl)C2(Cl)C3C(Cl)C(Cl)CC3C1(Cl)C2(Cl)Cl (configuration not stated)
T/C (dose: 9.5 mg/kg/injection, schedule: Q07DX002 (ip), vehicle: saline with Tween-80): 103 % of control | T/C (dose: 19.0 mg/kg/injection, schedule: Q07DX002 (ip), vehicle: saline with Tween-80): 114 % of control | T/C (dose: 28.0 mg/kg/injection, schedule: Q07DX002 (ip), vehicle: saline + Tween-80 + alcohol): 102 % of control | T/C (dose: 28.0 mg/kg/injection, schedule: Q07DX002 (ip), vehicle: saline with Tween-80): 100 % of control | T/C (dose: 50.0 mg/kg/injection, schedule: Q07DX002 (ip), vehicle: other): 63 % of control and 86 % of control | T/C (dose: 56.0 mg/kg/injection, schedule: Q07DX002 (ip), vehicle: saline + Tween-80 + alcohol): 86 % of control | T/C (dose: 56.0 mg/kg/injection, schedule: Q07DX002 (ip), vehicle: saline with Tween-80): 92 % of control and 93 % of control | T/C (dose: 100.0 mg/kg/injection, schedule: Q07DX002 (ip), vehicle: other): 84 % of control | T/C (dose: 112.0 mg/kg/injection, schedule: Q07DX002 (ip), vehicle: saline with Tween-80): 100 % of control

CCN(CC)CC[n+]1ccc2c(C)c3[nH]c4ccc(O)cc4c3c(C)c2c1
T/C (dose: 3.12 mg/kg/injection, schedule: Q07DX002 (ip), vehicle: saline): 38 % of control | T/C (dose: 3.12 mg/kg/injection, schedule: Q07DX002 (ip), vehicle: suspension in saline): 82 % of control | T/C (dose: 6.25 mg/kg/injection, schedule: Q07DX002 (ip), vehicle: suspension in saline): 103 % of control | T/C (dose: 12.5 mg/kg/injection, schedule: Q07DX002 (ip), vehicle: suspension in saline): 98 % of control | T/C (dose: 25.0 mg/kg/injection, schedule: Q07DX002 (ip), vehicle: saline): 15 % of control and 29 % of control | T/C [3]: 57 % of control | T/C (dose: 50.0 mg/kg/injection, schedule: Q07DX002 (ip), vehicle: saline): 5 % of control | T/C [1]: 22 % of control

COc1cc(C(C)(C)C)cc(OC)c1C(O)(c1c(OC)cc(C(C)(C)C)cc1OC)c1c(OC)cc(C(C)(C)C)cc1OC
T/C [4]: 70 % of control and 77 % of control | T/C [5]: 95 % of control and 102 % of control | T/C [6]: 88 % of control | T/C (dose: 400.0 mg/kg/injection, schedule: Q07DX002 (ip), vehicle: saline with Tween-80): 62 % of control

CS(=O)(=O)CS(=O)(=O)OCCCl
T/C (dose: 1.5 mg/kg/injection, schedule: Q07DX002 (ip), vehicle: saline): 86 % of control | T/C [7]: 91 % of control | T/C [8]: 97 % of control | T/C [9]: 155 % of control | T/C [10]: 73 % of control

CCCCCC(=O)O[C@]1(C(C)=O)CC[C@H]2[C@@H]3CCC4=CC(=O)CC[C@]4(C)[C@H]3CC[C@@]21C
T/C (dose: 25.0 mg/kg/injection, schedule: Q07DX003 (ip), vehicle: Klucel (hydroxypropylcellulose) (HPC)): 78 % of control | T/C (dose: 50.0 mg/kg/injection, schedule: Q07DX003 (ip), vehicle: Klucel (hydroxypropylcellulose) (HPC)): 62 % of control | T/C (dose: 100.0 mg/kg/injection, schedule: Q07DX003 (ip), vehicle: Klucel (hydroxypropylcellulose) (HPC)): 81 % of control | T/C (dose: 200.0 mg/kg/injection, schedule: Q07DX003 (ip), vehicle: Klucel (hydroxypropylcellulose) (HPC)): 82 % of control | T/C (dose: 400.0 mg/kg/injection, schedule: Q07DX003 (ip), vehicle: Klucel (hydroxypropylcellulose) (HPC)): 49 % of control

CC1(c2ccc(Cl)cc2)OC(=O)C(=Cc2ccc([N+](=O)[O-])s2)C(=O)O1 (configuration not stated)
T/C [4]: 77 % of control | T/C [10]: 63 % of control | T/C [5]: 101 % of control | T/C (dose: 100.0 mg/kg/injection, schedule: Q07DX002 (ip), vehicle: saline with Tween-80): 100 % of control | T/C [6]: 79 % of control

Nc1ccc2nc3ccc(N)cc3[n+](-c3ccccc3)c2c1
T/C [11]: 95 % of control | T/C [12]: 74 % of control | T/C (dose: 4.0 mg/kg/injection, schedule: Q07DX003 (ip), vehicle: saline): 28 % of control | T/C [13]: 96 % of control | T/C (dose: 8.0 mg/kg/injection, schedule: Q07DX003 (ip), vehicle: saline): 43 % of control | T/C [14]: 72 % of control | T/C (dose: 16.0 mg/kg/injection, schedule: Q07DX003 (ip), vehicle: saline): 46 % of control | T/C [15]: 97 % of control | T/C (dose: 32.0 mg/kg/injection, schedule: Q07DX003 (ip), vehicle: saline): 43 % of control

COC1C(OC(=O)/C=C/C=C/C=C/C=C/C(=O)O)CCC2(CO2)C1C1(C)OC1CC=C(C)C (configuration not stated)
T/C [3]: 101 % of control | T/C [1]: 208 % of control | T/C [2]: 115 % of control

COC1=CC(=O)N(C(=O)C2CSC(C(CO)NC(=O)c3csc(/C=N/O)n3)=N2)C1 (configuration not stated)
T/C (dose: 50.0 mg/kg/injection, schedule: Q07DX002 (ip), vehicle: Klucel (hydroxypropylcellulose) (HPC)): 114 % of control | T/C (dose: 100.0 mg/kg/injection, schedule: Q07DX002 (ip), vehicle: Klucel (hydroxypropylcellulose) (HPC)): 110 % of control | T/C (dose: 200.0 mg/kg/injection, schedule: Q07DX002 (ip), vehicle: Klucel (hydroxypropylcellulose) (HPC)): 150 % of control | T/C (dose: 400.0 mg/kg/injection, schedule: Q07DX002 (ip), vehicle: Klucel (hydroxypropylcellulose) (HPC)): 88 % of control

Nc1ncn(C2CC(O)C(CO)O2)c(=O)n1 (configuration not stated)
T/C (dose: 0.5 mg/kg/injection, schedule: Q07DX002 (ip), vehicle: Klucel (hydroxypropylcellulose) (HPC)): 102 % of control | T/C (dose: 0.5 mg/kg/injection, schedule: Q07DX002 (ip), vehicle: saline): 90 % of control | T/C (dose: 1.0 mg/kg/injection, schedule: Q07DX002 (ip), vehicle: Klucel (hydroxypropylcellulose) (HPC)): 113 % of control | T/C (dose: 1.0 mg/kg/injection, schedule: Q07DX002 (ip), vehicle: saline): 99 % of control | T/C (dose: 2.0 mg/kg/injection, schedule: Q07DX002 (ip), vehicle: Klucel (hydroxypropylcellulose) (HPC)): 86 % of control | T/C [11]: 75 % of control | T/C [7]: 14 % of control and 34 % of control | T/C (dose: 4.0 mg/kg/injection, schedule: Q07DX002 (ip), vehicle: Klucel (hydroxypropylcellulose) (HPC)): 106 % of control | T/C [12]: 43 % of control | T/C [8]: 29 % of control and 46 % of control | T/C (dose: 8.0 mg/kg/injection, schedule: Q07DX002 (ip), vehicle: Klucel (hydroxypropylcellulose) (HPC)): 60 % of control | T/C [13]: 28 % of control | T/C [9]: 23 % of control | T/C (dose: 16.0 mg/kg/injection, schedule: Q07DX002 (ip), vehicle: Klucel (hydroxypropylcellulose) (HPC)): 41 % of control | T/C [14]: 22 % of control | T/C (dose: 32.0 mg/kg/injection, schedule: Q07DX002 (ip), vehicle: Klucel (hydroxypropylcellulose) (HPC)): 43 % of control | T/C [15]: 4 % of control
